Organism: Rattus norvegicus
Experiment: DrugMatrix - Regimen: Daily Repeat
Format: toxicity, organism-based, Sprague-Dawley
Set-up: regimen Daily Repeat, gender Male, age 6-8 weeks
Conditions: in vivo, sc, route subcutaneous, […]; for ABSOLUTE BASOPHIL / ABSOLUTE EOSINOPHIL / ABSOLUTE LYMPHOCYTE / ABSOLUTE MONOCYTE / ABSOLUTE SEGMENTED NEUTROPHIL / BASOPHIL / EOSINOPHIL / ERYTHROCYTE COUNT / HEMATOCRIT / HEMOGLOBIN / LEUKOCYTE COUNT / LYMPHOCYTE / MEAN CORPUSCULAR HEMOGLOBIN / MEAN CORPUSCULAR HEMOGLOBIN CONCENTRATION / MEAN CORPUSCULAR VOLUME / MONOCYTE / NEUTROPHIL / NUCLEATED RED BLOOD CELLS / PLATELET COUNT: tissue Blood; for ALANINE AMINOTRANSFERASE / ALBUMIN / ALKALINE PHOSPHATASE / ASPARTATE AMINOTRANSFERASE / BLOOD UREA NITROGEN / CARBON DIOXIDE / CHLORIDE / CHOLESTEROL / CREATINE PHOSPHOKINASE / CREATININE / GLUCOSE / LACTATE DEHYDROGENASE / LIPASE / PHOSPHORUS / POTASSIUM / SODIUM / TOTAL BILIRUBIN / TOTAL PROTEIN / URIC ACID: tissue Plasma
[1] = 68 mg/kg, 72 h, dose level High, time 3 day
[2] = 68 mg/kg, 120 h, dose level High, time 5 day
[3] = 72 h, dose 6.8 mg/Kg, dose level Low, time 3 day
[4] = 120 h, dose 6.8 mg/Kg, dose level Low, time 5 day

SMILES: Oc1cccc2cccnc12 [OXYQUINOLINE]
- ABSOLUTE BASOPHIL [1]: 0 CELLS/uL
- ABSOLUTE EOSINOPHIL [1]: 246.33 CELLS/uL
- ABSOLUTE LYMPHOCYTE [1]: 13064.33 CELLS/uL
- ABSOLUTE MONOCYTE [1]: 405.33 CELLS/uL
- ABSOLUTE SEGMENTED NEUTROPHIL [1]: 1850.67 CELLS/uL
- BASOPHIL [1]: 0%
- EOSINOPHIL [1]: 1.67%
- ERYTHROCYTE COUNT [1]: 5.38 x10E6/uL
- HEMATOCRIT [1]: 34.33%
- HEMOGLOBIN [1]: 12.8 G/DL
- LEUKOCYTE COUNT [1]: 15.57 x10E3/uL
- LYMPHOCYTE [1]: 83.67%
- MEAN CORPUSCULAR HEMOGLOBIN [1]: 23.83 pg
- MEAN CORPUSCULAR HEMOGLOBIN CONCENTRATION [1]: 37.33 G/DL
- MEAN CORPUSCULAR VOLUME [1]: 63.87 fL
- MONOCYTE [1]: 2.67%
- NEUTROPHIL [1]: 12%
- NUCLEATED RED BLOOD CELLS [1]: 0 /100WBC
- PLATELET COUNT [1]: 1290 x10E3/uL
- ALANINE AMINOTRANSFERASE [1]: 49.33 u/L
- ALBUMIN [1]: 3.73 G/DL
- ALKALINE PHOSPHATASE [1]: 444 u/L
- ASPARTATE AMINOTRANSFERASE [1]: 72 u/L
- BLOOD UREA NITROGEN [1]: 18.67 mg/dL
- CARBON DIOXIDE [1]: 26 mmol/L
- CHLORIDE [1]: 105 MEQ/L
- CHOLESTEROL [1]: 65.33 mg/dL
- CREATINE PHOSPHOKINASE [1]: 160.33 u/L
- CREATININE [1]: 0.13 mg/dL
- GLUCOSE [1]: 169 mg/dL
- LACTATE DEHYDROGENASE [1]: 87.67 u/L
- LIPASE [1]: 8.67 u/L
- PHOSPHORUS [1]: 12.4 mg/dL
- POTASSIUM [1]: 6.22 MEQ/L
- SODIUM [1]: 146.43 MEQ/L
- TOTAL BILIRUBIN [1]: 0.2 mg/dL
- TOTAL PROTEIN [1]: 5.63 G/DL
- URIC ACID [1]: 1.07 mg/dL
- ABSOLUTE BASOPHIL [2]: 0 CELLS/uL
- ABSOLUTE EOSINOPHIL [2]: 367.33 CELLS/uL
- ABSOLUTE LYMPHOCYTE [2]: 11402.67 CELLS/uL
- ABSOLUTE MONOCYTE [2]: 397.67 CELLS/uL
- ABSOLUTE SEGMENTED NEUTROPHIL [2]: 1465.67 CELLS/uL
- BASOPHIL [2]: 0%
- EOSINOPHIL [2]: 2.67%
- ERYTHROCYTE COUNT [2]: 5.88 x10E6/uL
- HEMATOCRIT [2]: 36.73%
- HEMOGLOBIN [2]: 13.63 G/DL
- LEUKOCYTE COUNT [2]: 13.63 x10E3/uL
- LYMPHOCYTE [2]: 83.33%
- MEAN CORPUSCULAR HEMOGLOBIN [2]: 23.2 pg
- MEAN CORPUSCULAR HEMOGLOBIN CONCENTRATION [2]: 37.13 G/DL
- MEAN CORPUSCULAR VOLUME [2]: 62.53 fL
- MONOCYTE [2]: 3%
- NEUTROPHIL [2]: 11%
- NUCLEATED RED BLOOD CELLS [2]: 0 /100WBC
- PLATELET COUNT [2]: 1567 x10E3/uL
- ALANINE AMINOTRANSFERASE [2]: 37.67 u/L
- ALBUMIN [2]: 3.87 G/DL
- ALKALINE PHOSPHATASE [2]: 326.67 u/L
- ASPARTATE AMINOTRANSFERASE [2]: 67 u/L
- BLOOD UREA NITROGEN [2]: 16.67 mg/dL
- CARBON DIOXIDE [2]: 25.33 mmol/L
- CHLORIDE [2]: 105 MEQ/L
- CHOLESTEROL [2]: 75.33 mg/dL
- CREATINE PHOSPHOKINASE [2]: 175 u/L
- CREATININE [2]: 0.16 mg/dL
- GLUCOSE [2]: 162 mg/dL
- LACTATE DEHYDROGENASE [2]: 86.67 u/L
- LIPASE [2]: 8 u/L
- PHOSPHORUS [2]: 13.33 mg/dL
- POTASSIUM [2]: 6.17 MEQ/L
- SODIUM [2]: 147.4 MEQ/L
- TOTAL BILIRUBIN [2]: 0.17 mg/dL
- TOTAL PROTEIN [2]: 6.03 G/DL
- URIC ACID [2]: 2.03 mg/dL
- ABSOLUTE BASOPHIL [3]: 0 CELLS/uL
- ABSOLUTE EOSINOPHIL [3]: 0 CELLS/uL
- ABSOLUTE LYMPHOCYTE [3]: 14772 CELLS/uL
- ABSOLUTE MONOCYTE [3]: 208 CELLS/uL
- ABSOLUTE SEGMENTED NEUTROPHIL [3]: 1086.67 CELLS/uL
- BASOPHIL [3]: 0%
- EOSINOPHIL [3]: 0%
- ERYTHROCYTE COUNT [3]: 5.93 x10E6/uL
- HEMATOCRIT [3]: 37.03%
- HEMOGLOBIN [3]: 13.73 G/DL
- LEUKOCYTE COUNT [3]: 16.07 x10E3/uL
- LYMPHOCYTE [3]: 91.33%
- MEAN CORPUSCULAR HEMOGLOBIN [3]: 23.23 pg
- MEAN CORPUSCULAR HEMOGLOBIN CONCENTRATION [3]: 37.07 G/DL
- MEAN CORPUSCULAR VOLUME [3]: 62.63 fL
- MONOCYTE [3]: 1.33%
- NEUTROPHIL [3]: 7.33%
- NUCLEATED RED BLOOD CELLS [3]: 0.33 /100WBC
- PLATELET COUNT [3]: 1308.67 x10E3/uL
- ALANINE AMINOTRANSFERASE [3]: 45.67 u/L
- ALBUMIN [3]: 4.3 G/DL
- ALKALINE PHOSPHATASE [3]: 363.67 u/L
- ASPARTATE AMINOTRANSFERASE [3]: 73.33 u/L
- BLOOD UREA NITROGEN [3]: 15 mg/dL
- CARBON DIOXIDE [3]: 24.33 mmol/L
- CHLORIDE [3]: 103 MEQ/L
- CHOLESTEROL [3]: 68.67 mg/dL
- CREATINE PHOSPHOKINASE [3]: 130.33 u/L
- CREATININE [3]: 0.2 mg/dL
- GLUCOSE [3]: 142.67 mg/dL
- LACTATE DEHYDROGENASE [3]: 83.33 u/L
- LIPASE [3]: 8.67 u/L
- PHOSPHORUS [3]: 11.27 mg/dL
- POTASSIUM [3]: 6.77 MEQ/L
- SODIUM [3]: 146.07 MEQ/L
- TOTAL BILIRUBIN [3]: 0.2 mg/dL
- TOTAL PROTEIN [3]: 5.57 G/DL
- URIC ACID [3]: 1.63 mg/dL
- ABSOLUTE BASOPHIL [4]: 0 CELLS/uL
- ABSOLUTE EOSINOPHIL [4]: 182.67 CELLS/uL
- ABSOLUTE LYMPHOCYTE [4]: 12749.33 CELLS/uL
- ABSOLUTE MONOCYTE [4]: 601.33 CELLS/uL
- ABSOLUTE SEGMENTED NEUTROPHIL [4]: 1500 CELLS/uL
- BASOPHIL [4]: 0%
- EOSINOPHIL [4]: 1.33%
- ERYTHROCYTE COUNT [4]: 6.16 x10E6/uL
- HEMATOCRIT [4]: 37.9%
- HEMOGLOBIN [4]: 13.87 G/DL
- LEUKOCYTE COUNT [4]: 15.03 x10E3/uL
- LYMPHOCYTE [4]: 84.67%
- MEAN CORPUSCULAR HEMOGLOBIN [4]: 22.53 pg
- MEAN CORPUSCULAR HEMOGLOBIN CONCENTRATION [4]: 36.6 G/DL
- MEAN CORPUSCULAR VOLUME [4]: 61.5 fL
- MONOCYTE [4]: 4%
- NEUTROPHIL [4]: 10%
- NUCLEATED RED BLOOD CELLS [4]: 0 /100WBC
- PLATELET COUNT [4]: 1278.67 x10E3/uL
- ALANINE AMINOTRANSFERASE [4]: 45 u/L
- ALBUMIN [4]: 4.2 G/DL
- ALKALINE PHOSPHATASE [4]: 341 u/L
- ASPARTATE AMINOTRANSFERASE [4]: 77 u/L
- BLOOD UREA NITROGEN [4]: 19 mg/dL
- CARBON DIOXIDE [4]: 24.33 mmol/L
- CHLORIDE [4]: 107 MEQ/L
- CHOLESTEROL [4]: 75.33 mg/dL
- CREATINE PHOSPHOKINASE [4]: 227.33 u/L
- CREATININE [4]: 0.17 mg/dL
- GLUCOSE [4]: 154.33 mg/dL
- LACTATE DEHYDROGENASE [4]: 324 u/L
- LIPASE [4]: 9 u/L
- PHOSPHORUS [4]: 12.23 mg/dL
- POTASSIUM [4]: 6.39 MEQ/L
- SODIUM [4]: 146.97 MEQ/L
- TOTAL BILIRUBIN [4]: 0.13 mg/dL
- TOTAL PROTEIN [4]: 6.37 G/DL
- URIC ACID [4]: 1.5 mg/dL

Source: ChEMBL document CHEMBL3885881, “DrugMatrix”
